Calls of active or inactive are those of the source. The rule behind the calls is not given here.
What was measured:
[1] = target: Ribosomal protein S6 kinase alpha-1 (Homo sapiens) (UniProt Q15418); experiment: Inhibition of RPS6KA1 (unknown origin) at 20 nM using phosphatidylserine as substrate incubated for 60 mins in presence of [33P]-ATP by scintillation counting method
[2] = Apparent permeability from apical to basolateral side in MDCK cells at 50 umol/L at pH 7.4 incubated for 30 mins by LC-MS/MS analysis; type: ADME, cell-based, Canis lupus familiaris; conditions: dog
[3] = Intrinsic clearance in human liver microsomes; type: ADME, Microsome; conditions: read-out: CLH
[4] = target: Protein kinase C theta type (Homo sapiens) (UniProt Q04759); experiment: Inhibition of recombinant human full length N-terminal GST and C-terminal His6-tagged PKC-theta (M1 to S706) expressed in Sf9 insect cells at 20 nM using phosphatidylserine as substrate incubated for 60 mins in presence of [33P]-ATP by scintillation counting method
Protein kinase C theta type (Homo sapiens), sequence (Q04759 whole entry, looked up): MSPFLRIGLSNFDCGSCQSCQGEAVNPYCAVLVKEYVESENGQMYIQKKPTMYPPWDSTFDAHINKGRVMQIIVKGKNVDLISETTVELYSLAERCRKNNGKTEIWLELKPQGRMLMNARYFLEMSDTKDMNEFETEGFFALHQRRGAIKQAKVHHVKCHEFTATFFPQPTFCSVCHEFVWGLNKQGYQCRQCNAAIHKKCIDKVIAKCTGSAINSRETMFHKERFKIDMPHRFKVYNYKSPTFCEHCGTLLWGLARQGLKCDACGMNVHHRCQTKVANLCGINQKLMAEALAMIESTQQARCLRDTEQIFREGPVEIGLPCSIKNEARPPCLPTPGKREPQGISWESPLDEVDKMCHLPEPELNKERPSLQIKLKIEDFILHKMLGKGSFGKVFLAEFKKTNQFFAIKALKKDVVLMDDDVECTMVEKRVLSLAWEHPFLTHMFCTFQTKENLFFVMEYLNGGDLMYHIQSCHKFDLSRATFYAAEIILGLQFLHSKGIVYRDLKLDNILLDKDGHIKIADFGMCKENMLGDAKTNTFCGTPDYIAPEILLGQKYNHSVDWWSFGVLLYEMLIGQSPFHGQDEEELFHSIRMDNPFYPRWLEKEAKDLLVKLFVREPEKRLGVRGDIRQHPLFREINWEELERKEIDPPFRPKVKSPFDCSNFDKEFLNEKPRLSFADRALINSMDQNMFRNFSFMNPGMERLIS

[5] = target: Ribosomal protein S6 kinase beta-1 (Homo sapiens) (UniProt P23443); experiment: Inhibition of recombinant human N-terminal GST/His6-tagged S6K internal ([…]) expressed in Sf9 insect cells at 20 nM using phosphatidylserine as substrate incubated for 60 mins in presence of [33P]-ATP by scintillation counting method
Ribosomal protein S6 kinase beta-1 (Homo sapiens), sequence (P23443 whole entry, looked up): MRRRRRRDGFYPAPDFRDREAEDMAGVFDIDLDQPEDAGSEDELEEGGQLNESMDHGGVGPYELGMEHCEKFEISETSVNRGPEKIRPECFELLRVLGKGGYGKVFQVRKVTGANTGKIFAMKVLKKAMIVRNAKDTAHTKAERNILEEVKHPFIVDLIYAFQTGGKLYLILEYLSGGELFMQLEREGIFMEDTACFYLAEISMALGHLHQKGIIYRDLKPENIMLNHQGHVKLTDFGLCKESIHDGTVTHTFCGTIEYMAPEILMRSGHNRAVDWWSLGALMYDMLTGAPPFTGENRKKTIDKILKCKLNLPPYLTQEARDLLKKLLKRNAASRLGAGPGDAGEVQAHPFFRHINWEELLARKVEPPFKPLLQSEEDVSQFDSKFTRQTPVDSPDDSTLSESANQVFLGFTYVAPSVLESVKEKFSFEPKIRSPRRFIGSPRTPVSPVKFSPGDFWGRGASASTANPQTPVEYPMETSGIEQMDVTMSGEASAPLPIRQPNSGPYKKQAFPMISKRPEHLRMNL

[6] = target: RAC-alpha serine/threonine-protein kinase (Homo sapiens) (UniProt P31749); experiment: Inhibition of recombinant human N-terminal GST/His6-tagged and C-terminal His6-tagged AKT1(V106 to A480) expressed in Sf9 insect cells at 20 nM using phosphatidylserine as substrate incubated for 60 mins in presence of [33P]-ATP by scintillation counting method
RAC-alpha serine/threonine-protein kinase (Homo sapiens), sequence (P31749 whole entry): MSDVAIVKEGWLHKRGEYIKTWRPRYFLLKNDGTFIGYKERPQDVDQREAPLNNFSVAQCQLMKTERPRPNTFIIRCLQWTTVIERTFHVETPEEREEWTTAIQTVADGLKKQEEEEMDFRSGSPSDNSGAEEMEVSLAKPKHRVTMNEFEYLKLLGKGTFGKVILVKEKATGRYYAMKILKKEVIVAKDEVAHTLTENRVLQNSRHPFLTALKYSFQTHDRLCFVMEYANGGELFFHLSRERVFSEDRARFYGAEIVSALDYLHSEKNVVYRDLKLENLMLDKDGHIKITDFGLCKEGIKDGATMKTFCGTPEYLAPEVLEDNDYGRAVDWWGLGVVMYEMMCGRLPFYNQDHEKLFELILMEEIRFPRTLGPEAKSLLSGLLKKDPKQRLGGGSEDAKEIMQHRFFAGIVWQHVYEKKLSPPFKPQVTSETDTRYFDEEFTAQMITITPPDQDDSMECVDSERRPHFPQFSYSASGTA

[7] = target: 5'-AMP-activated protein kinase catalytic subunit alpha-1 (Homo sapiens) (UniProt Q13131); experiment: Inhibition of recombinant human full length N-terminal GST/His6-tagged AMPKalpha1 (M1 to Q550) expressed in Sf9 insect cells at 20 nM using phosphatidylserine as substrate incubated for 60 mins in presence of [33P]-ATP by scintillation counting method
[8] = target: Serine/threonine-protein kinase Sgk1 (Homo sapiens) (UniProt O00141); experiment: Inhibition of recombinant human full length N-terminal GST and C-terminal His6-tagged SGK1 (M1 to L431) expressed in Sf9 insect cells at 20 nM using phosphatidylserine as substrate incubated for 60 mins in presence of [33P]-ATP by scintillation counting method
Homo sapiens = species: Homo sapiens; experiment: Inhibition of PKA (unknown origin) at 20 nM using phosphatidylserine as substrate incubated for 60 mins in presence of [33P]-ATP by scintillation counting method
[9] = Toxicity in CFA induced Sprague-Dawley rat assessed as increase in weight gain at 20 mg/kg, po and measured up to 3 days; type: organism-based; conditions: in vivo, 72 h
[10] = target: Insulin receptor (Homo sapiens) (UniProt P06213); experiment: Inhibition of recombinant human N-terminal GST/His6-tagged INS-R C-terminal (G989 to S1382) expressed in Sf9 insect cells at 20 nM using phosphatidylserine as substrate incubated for 60 mins in presence of [33P]-ATP by scintillation counting method
[11] = target: Vascular endothelial growth factor receptor 2 (Homo sapiens) (UniProt P35968); experiment: Inhibition of recombinant human N-terminal GST-tagged VEGF-R2 C-terminal (G443 to G796) expressed in Sf9 insect cells at 20 nM using phosphatidylserine as substrate incubated for 60 mins in presence of [33P]-ATP by scintillation counting method
[12] = target: Activin receptor type-1 (Homo sapiens) (UniProt Q04771); experiment: Inhibition of recombinant human N-terminal GST/His6-tagged ACVR1 C-terminal (A145 to C509) expressed in Sf9 insect cells at 20 nM using phosphatidylserine as substrate incubated for 60 mins in presence of [33P]-ATP by scintillation counting method
[13] = target: Tyrosine-protein kinase Lck (Homo sapiens) (UniProt P06239); experiment: Inhibition of recombinant human full length N-terminal GST/His6-tagged LCK (M1 to P509) expressed in Sf9 insect cells at 20 nM using phosphatidylserine as substrate incubated for 60 mins in presence of [33P]-ATP by scintillation counting method
[14] = target: Mitogen-activated protein kinase 3 (Homo sapiens) (UniProt P27361); experiment: Inhibition of recombinant human full length N-terminal GST/His6-tagged ERK1 (M1 to P379) expressed in Escherichia coli at 20 nM using phosphatidylserine as substrate incubated for 60 mins in presence of [33P]-ATP by scintillation counting method
Mitogen-activated protein kinase 3 (Homo sapiens), sequence (P27361 whole entry): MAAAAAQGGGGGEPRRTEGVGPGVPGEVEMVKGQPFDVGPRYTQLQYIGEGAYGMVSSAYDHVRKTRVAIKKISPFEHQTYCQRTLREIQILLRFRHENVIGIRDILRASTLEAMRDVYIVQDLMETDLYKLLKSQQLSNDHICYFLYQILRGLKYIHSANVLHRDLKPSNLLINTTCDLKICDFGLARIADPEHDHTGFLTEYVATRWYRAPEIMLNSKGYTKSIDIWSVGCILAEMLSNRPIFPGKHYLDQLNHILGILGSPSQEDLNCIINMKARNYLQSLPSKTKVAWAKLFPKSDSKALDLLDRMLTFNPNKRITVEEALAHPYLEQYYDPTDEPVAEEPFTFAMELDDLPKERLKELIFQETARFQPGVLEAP

[15] = target: Rho-associated protein kinase 2 (Homo sapiens) (UniProt O75116); experiment: Inhibition of recombinant human N-terminal GST/His6-tagged ROCK2 internal (P6 to S553) expressed in baculovirus infected Sf9 insect cells at 20 nM using phosphatidylserine as substrate incubated for 60 mins in presence of [33P]-ATP by scintillation counting method
Rho-associated protein kinase 2 (Homo sapiens), sequence (O75116 whole entry, looked up): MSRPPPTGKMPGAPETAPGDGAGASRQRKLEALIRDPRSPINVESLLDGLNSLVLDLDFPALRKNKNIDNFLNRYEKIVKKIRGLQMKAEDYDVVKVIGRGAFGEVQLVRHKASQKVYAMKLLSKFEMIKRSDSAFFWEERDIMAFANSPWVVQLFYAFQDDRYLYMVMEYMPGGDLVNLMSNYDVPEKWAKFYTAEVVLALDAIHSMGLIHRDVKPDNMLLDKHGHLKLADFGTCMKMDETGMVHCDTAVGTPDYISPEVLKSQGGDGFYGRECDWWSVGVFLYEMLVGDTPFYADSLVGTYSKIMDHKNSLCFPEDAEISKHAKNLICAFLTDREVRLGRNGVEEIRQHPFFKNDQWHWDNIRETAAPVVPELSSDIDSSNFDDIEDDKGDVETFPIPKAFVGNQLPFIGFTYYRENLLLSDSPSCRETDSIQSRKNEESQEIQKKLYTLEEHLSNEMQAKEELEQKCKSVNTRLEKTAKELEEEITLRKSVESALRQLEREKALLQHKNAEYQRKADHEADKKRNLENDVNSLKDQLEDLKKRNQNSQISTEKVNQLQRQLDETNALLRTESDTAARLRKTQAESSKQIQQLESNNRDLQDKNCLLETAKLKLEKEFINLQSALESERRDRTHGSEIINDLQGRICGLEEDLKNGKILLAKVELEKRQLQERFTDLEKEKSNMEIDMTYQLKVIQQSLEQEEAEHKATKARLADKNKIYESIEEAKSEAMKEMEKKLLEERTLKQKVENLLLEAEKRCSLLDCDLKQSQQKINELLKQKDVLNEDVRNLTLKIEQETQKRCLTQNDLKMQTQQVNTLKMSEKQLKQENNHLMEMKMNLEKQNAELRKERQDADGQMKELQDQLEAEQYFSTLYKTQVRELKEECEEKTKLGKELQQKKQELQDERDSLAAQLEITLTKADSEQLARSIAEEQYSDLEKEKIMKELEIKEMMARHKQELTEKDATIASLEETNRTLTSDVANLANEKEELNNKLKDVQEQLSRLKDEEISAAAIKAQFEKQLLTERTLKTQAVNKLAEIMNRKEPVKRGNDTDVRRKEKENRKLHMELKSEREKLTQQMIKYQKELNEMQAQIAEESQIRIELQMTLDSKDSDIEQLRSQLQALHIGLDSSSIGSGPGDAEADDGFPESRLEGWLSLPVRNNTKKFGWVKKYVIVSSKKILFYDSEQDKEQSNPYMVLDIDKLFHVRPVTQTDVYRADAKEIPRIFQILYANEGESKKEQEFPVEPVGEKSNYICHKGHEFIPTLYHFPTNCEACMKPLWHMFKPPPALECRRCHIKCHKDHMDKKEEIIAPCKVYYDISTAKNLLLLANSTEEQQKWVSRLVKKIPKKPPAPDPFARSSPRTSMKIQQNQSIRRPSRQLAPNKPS

[16] = Cmax in Sprague-Dawley rat at 5 mg/kg, po; type: ADME, organism-based; set-up: dose 5 mg/kg, route oral; conditions: in vivo
Rattus norvegicus [17] = experiment: Antinociceptive activity in CFA induced thermal hypersensitivity Sprague-Dawley rat model assessed as increase in paw withdrawal latency at 4 mg/kg, po after 1 hr; type: functional, organism-based
[18] = target: Tyrosine-protein kinase BTK (Homo sapiens) (UniProt Q06187); experiment: Inhibition of recombinant human full length N-terminal GST/His6-tagged BTK (M1 to S659) expressed in Sf9 insect cells at 20 nM using phosphatidylserine as substrate incubated for 60 mins in presence of [33P]-ATP by scintillation counting method
Rattus norvegicus [19] = experiment: Unbound drug level in plasma of CFA induced Sprague-Dawley rat at 0.8 mg/kg, po after 1 hr; type: ADME, organism-based; conditions: in vivo
[20] = target: MAP kinase-activated protein kinase 2 (Homo sapiens) (UniProt P49137); experiment: Inhibition of recombinant human full length N-terminal GST/His6-tagged MAPKAPK2 (M1 to L370) expressed in Sf9 insect cells at 20 nM using phosphatidylserine as substrate incubated for 60 mins in presence of [33P]-ATP by scintillation counting method
MAP kinase-activated protein kinase 2 (Homo sapiens), sequence (P49137 whole entry, looked up): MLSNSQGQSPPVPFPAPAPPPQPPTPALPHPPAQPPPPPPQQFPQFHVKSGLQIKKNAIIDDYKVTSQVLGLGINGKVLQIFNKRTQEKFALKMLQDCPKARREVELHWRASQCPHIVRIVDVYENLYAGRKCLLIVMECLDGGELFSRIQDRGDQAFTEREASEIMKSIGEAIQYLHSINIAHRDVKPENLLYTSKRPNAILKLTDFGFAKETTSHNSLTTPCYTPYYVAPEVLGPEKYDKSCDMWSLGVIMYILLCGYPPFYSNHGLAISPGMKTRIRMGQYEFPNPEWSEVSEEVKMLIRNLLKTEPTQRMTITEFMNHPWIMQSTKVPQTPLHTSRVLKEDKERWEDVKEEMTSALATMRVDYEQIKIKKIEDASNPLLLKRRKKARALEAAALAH

[21] = target: Tyrosine-protein kinase SYK (Homo sapiens) (UniProt P43405); experiment: Inhibition of recombinant human full length N-terminal GST and C-terminal His6-tagged SYK (M1 to N635) expressed in Sf9 insect cells at 20 nM using phosphatidylserine as substrate incubated for 60 mins in presence of [33P]-ATP by scintillation counting method
[22] = target: Inhibitor of nuclear factor kappa-B kinase subunit beta (Homo sapiens) (UniProt O14920); experiment: Inhibition of recombinant human full length N-terminal GST/His6-tagged IKK-beta (M1 to S756) expressed in Sf9 insect cells at 20 nM using phosphatidylserine as substrate incubated for 60 mins in presence of [33P]-ATP by scintillation counting method
Inhibitor of nuclear factor kappa-B kinase subunit beta (Homo sapiens), sequence (O14920 whole entry): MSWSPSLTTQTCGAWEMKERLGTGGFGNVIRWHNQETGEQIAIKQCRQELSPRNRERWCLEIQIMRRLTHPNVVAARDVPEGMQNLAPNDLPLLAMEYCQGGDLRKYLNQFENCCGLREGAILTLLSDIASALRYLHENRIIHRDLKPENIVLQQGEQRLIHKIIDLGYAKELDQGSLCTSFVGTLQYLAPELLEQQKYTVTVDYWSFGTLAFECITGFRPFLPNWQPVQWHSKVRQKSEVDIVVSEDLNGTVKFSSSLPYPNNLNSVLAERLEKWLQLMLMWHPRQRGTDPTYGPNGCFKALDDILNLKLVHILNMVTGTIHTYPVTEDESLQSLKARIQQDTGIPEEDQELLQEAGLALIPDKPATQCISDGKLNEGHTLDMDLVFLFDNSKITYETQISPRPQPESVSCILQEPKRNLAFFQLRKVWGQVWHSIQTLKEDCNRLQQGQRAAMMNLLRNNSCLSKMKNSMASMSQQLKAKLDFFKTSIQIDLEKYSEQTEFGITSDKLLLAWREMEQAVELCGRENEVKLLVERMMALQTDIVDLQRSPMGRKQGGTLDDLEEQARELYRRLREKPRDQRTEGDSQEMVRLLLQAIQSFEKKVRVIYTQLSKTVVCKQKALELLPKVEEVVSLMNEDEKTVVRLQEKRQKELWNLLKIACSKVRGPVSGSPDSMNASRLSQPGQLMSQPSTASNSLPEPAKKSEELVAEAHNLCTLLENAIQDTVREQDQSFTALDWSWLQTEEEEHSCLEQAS

Rattus norvegicus [23] = experiment: Unbound drug level in plasma of CFA induced Sprague-Dawley rat at 4 mg/kg, po after 1 hr; type: ADME, organism-based; conditions: in vivo
[24] = Unbound drug level in brain of CFA induced Sprague-Dawley rat at 20 mg/kg, po after 1 hr; type: ADME, organism-based; conditions: in vivo

Cn1cc(-c2n[nH]c3ccc(NCc4cc(F)ccc4S(C)(=O)=O)cc23)cn1
inhibition [1]: 7%
Papp A→B at 0.5 h, 50 µM [2]: 15.2 ×10⁻⁶ cm/s
CLint scaled [3]: 127 mL/min/kg
inhibition [4]: -2%
inhibition [5]: 3%
inhibition [6]: 6%
inhibition [7]: -9%
inhibition [8]: -1%
inhibition (Homo sapiens): -8%
Activity [9]: Non-Toxic
inhibition [10]: -7%
inhibition [11]: 4%
inhibition [12]: -2%
inhibition [13]: -6%
inhibition [14]: -9%
inhibition [15]: 5%
Cmax [16]: 161 nM
Activity (Rattus norvegicus [17]): Active
inhibition [18]: -6%
Cp(f) (Rattus norvegicus [19]): 4.7 nM
inhibition [20]: 19%
inhibition [21]: 4%
inhibition [22]: -7%
Cp(f) (Rattus norvegicus [23]): 14.9 nM
Drug uptake(free) [24]: 1.5 nM

Source: ChEMBL document CHEMBL4346729, “The discovery of novel 3-aryl-indazole derivatives as peripherally restricted pan-Trk inhibitors for the treatment of pain” (Bioorg Med Chem Lett, 2019)
